Patent EP4722212A1, “NOVEL COMPOUND FOR INHIBITING PROTEIN KINASES AND PHARMACEUTICAL COMPOSITION COMPRISING SAME” (Magicbullettherapeutics Co., Ltd., priority 2023, dated 2024)
Like-named read-outs stand apart in the source and are kept apart here.

How the values were obtained:
Experiment in all cases: Kinase panel
Assay type in all cases: biochemical
AKT3 = AKT3 (Homo sapiens, UniProt Q9Y243); details: AKT3, 1 µM; read-out: residual enzyme activity
Outline: (§1)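 1 µM, one concentration only, biochemical panel format. Residual activity computed per kinase; threshold for identification: residual ≤40%.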

BMPR2 = BMPR2 (Homo sapiens, UniProt Q13873); details: BMPR2, 1 µM; read-out: residual enzyme activity
Outline: as §1

BRAF = BRAF (Homo sapiens, UniProt P15056); details: read-out: residual enzyme activity
Outline: as §1

CAMK2B = CAMK2B (Homo sapiens, UniProt Q13554); details: read-out: residual enzyme activity
Outline: as §1

CAMKIG = CAMKIG (Homo sapiens, UniProt Q96NX5); details: read-out: residual enzyme activity
Outline: as §1

CDK7/CYCLIN H = CDK7/CYCLIN H (Homo sapiens, UniProt P50613); details: read-out: residual enzyme activity
Outline: as §1

CK1G2 = CK1G2 (Homo sapiens, UniProt P78368); details: read-out: residual enzyme activity
Outline: as §1

CLK2 = CLK2 (Homo sapiens, UniProt P49760); details: CLK2, 1 µM; read-out: residual enzyme activity
Outline: as §1

COT1/MAP3K8 = COT1/MAP3K8 (Homo sapiens, UniProt P41279); details: COT1/MAP3K8, 1 µM; read-out: residual enzyme activity
Outline: as §1

DAPK2 = DAPK2 (Homo sapiens, UniProt Q9UIK4); details: DAPK2, 1 µM; read-out: residual enzyme activity
Outline: as §1

DCAMKL1 = DCAMKL1 (Homo sapiens, UniProt O15075); details: DCAMKL1, 1 µM; read-out: residual enzyme activity
Outline: as §1

DRAK1/STK17A = DRAK1/STK17A (Homo sapiens, UniProt Q9UEE5); details: read-out: residual enzyme activity
Outline: as §1

EPHA2 = EPHA2 (Homo sapiens, UniProt P29317); details: EPHA2, 1 µM; read-out: residual enzyme activity
Outline: as §1

ERK1 = ERK1 (Homo sapiens, UniProt P27361); details: ERK1, 1 µM; read-out: residual enzyme activity
Outline: as §1

GRK3 = GRK3 (Homo sapiens, UniProt P35626); details: GRK3, 1 µM; read-out: residual enzyme activity
Outline: as §1

MEK2 = MEK2 (Homo sapiens, UniProt P36507); details: MEK2, 1 µM; read-out: residual enzyme activity
Outline: as §1

MKK7 = MKK7 (Homo sapiens, UniProt O14733); details: MKK7, 1 µM; read-out: residual enzyme activity
Outline: as §1

MST1/STK4 = MST1/STK4 (Homo sapiens, UniProt Q13043); details: MST1/STK4, 1 µM; read-out: residual enzyme activity
Outline: as §1

MST3/STK24 = MST3/STK24 (Homo sapiens, UniProt Q9Y6E0); details: MST3/STK24, 1 µM; read-out: residual enzyme activity
Outline: as §1

OSR1/OXSR1 = OSR1/OXSR1 (Homo sapiens, UniProt O95747); details: OSR1/OXSR1, 1 µM; read-out: residual enzyme activity
Outline: as §1

P38D/MAPK13 = P38D/MAPK13 (Homo sapiens, UniProt O15264); details: read-out: residual enzyme activity
Outline: as §1

PKA = PKA (Homo sapiens, UniProt P17612); details: read-out: residual enzyme activity
Outline: as §1

PKACG = PKACG (Homo sapiens, UniProt P22612); details: read-out: residual enzyme activity
Outline: as §1

PKCEPSILON = PKCEPSILON (Homo sapiens, UniProt Q02156); details: read-out: residual enzyme activity
Outline: as §1

PKCG = PKCG (Homo sapiens, UniProt P05129); details: read-out: residual enzyme activity
Outline: as §1

PKCMU/PRKD1 = PKCMU/PRKD1 (Homo sapiens, UniProt Q15139); details: PKCmu/PRKD1, 1 µM; read-out: residual enzyme activity
Outline: as §1

PLK2 = PLK2 (Homo sapiens, UniProt Q9NYY3); details: PLK2, 1 µM; read-out: residual enzyme activity
Outline: as §1

RET = RET (Homo sapiens, UniProt P07949); details: read-out: residual enzyme activity
Outline: as §1

RON/MSTIR = RON/MSTIR (Homo sapiens, UniProt Q04912); details: read-out: residual enzyme activity
Outline: as §1

SIK1 = SIK1 (Homo sapiens, UniProt P57059); details: SIK1, 1 µM; read-out: residual enzyme activity
Outline: as §1

STK32C/YANK3 = STK32C/YANK3 (Homo sapiens, UniProt Q86UX6); details: STK32C/YANK3, 1 µM; read-out: residual enzyme activity
Outline: as §1

TAK1 = TAK1 (Homo sapiens, UniProt O43318); details: TAK1, 1 µM; read-out: residual enzyme activity
Outline: as §1

TAOK3/JIK = TAOK3/JIK (Homo sapiens, UniProt Q9H2K8); details: read-out: residual enzyme activity
Outline: as §1

WNK2 = WNK2 (Homo sapiens, UniProt Q9Y3S1); details: WNK2, 1 µM; read-out: residual enzyme activity
Outline: as §1

Chain of CLK2 (P49760 whole entry, species assumed): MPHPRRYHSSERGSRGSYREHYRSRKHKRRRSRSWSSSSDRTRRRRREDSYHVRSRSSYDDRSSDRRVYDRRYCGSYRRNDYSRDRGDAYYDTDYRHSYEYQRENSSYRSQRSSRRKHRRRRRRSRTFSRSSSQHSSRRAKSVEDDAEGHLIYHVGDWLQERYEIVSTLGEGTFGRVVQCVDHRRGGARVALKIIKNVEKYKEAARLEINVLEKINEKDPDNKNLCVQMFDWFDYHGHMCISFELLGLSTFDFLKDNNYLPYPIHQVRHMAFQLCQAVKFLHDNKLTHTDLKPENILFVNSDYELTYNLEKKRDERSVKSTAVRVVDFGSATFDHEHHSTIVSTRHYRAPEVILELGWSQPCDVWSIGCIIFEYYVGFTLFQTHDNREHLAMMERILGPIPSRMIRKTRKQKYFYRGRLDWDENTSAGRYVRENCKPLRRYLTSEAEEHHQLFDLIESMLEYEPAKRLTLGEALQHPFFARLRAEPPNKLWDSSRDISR
Chain of PKCMU/PRKD1 (Q15139 whole entry): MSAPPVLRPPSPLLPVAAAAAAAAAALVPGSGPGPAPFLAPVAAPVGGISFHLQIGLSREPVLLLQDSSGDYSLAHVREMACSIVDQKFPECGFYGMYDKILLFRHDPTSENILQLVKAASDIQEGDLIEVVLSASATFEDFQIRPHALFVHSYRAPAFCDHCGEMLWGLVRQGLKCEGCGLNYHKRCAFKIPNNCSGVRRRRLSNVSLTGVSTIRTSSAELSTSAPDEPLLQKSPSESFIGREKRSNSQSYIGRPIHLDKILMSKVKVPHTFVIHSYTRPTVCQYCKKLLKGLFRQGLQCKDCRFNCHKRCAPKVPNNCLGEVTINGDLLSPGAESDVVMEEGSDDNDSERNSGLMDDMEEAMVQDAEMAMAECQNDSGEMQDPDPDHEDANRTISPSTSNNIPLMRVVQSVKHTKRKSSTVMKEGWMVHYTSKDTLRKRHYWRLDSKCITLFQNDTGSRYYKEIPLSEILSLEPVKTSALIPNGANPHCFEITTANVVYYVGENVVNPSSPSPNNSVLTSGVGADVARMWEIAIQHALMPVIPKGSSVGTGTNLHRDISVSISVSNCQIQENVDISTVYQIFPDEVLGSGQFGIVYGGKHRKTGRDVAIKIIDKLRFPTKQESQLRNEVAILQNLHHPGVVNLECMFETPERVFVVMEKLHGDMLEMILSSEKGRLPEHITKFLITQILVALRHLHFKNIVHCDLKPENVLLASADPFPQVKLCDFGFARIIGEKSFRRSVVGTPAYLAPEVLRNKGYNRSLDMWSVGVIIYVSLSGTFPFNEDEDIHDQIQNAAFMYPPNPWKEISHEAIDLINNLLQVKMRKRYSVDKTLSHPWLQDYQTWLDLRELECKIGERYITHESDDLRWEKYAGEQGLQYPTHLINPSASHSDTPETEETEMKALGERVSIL
Chain of MEK2 (P36507 whole entry, species assumed): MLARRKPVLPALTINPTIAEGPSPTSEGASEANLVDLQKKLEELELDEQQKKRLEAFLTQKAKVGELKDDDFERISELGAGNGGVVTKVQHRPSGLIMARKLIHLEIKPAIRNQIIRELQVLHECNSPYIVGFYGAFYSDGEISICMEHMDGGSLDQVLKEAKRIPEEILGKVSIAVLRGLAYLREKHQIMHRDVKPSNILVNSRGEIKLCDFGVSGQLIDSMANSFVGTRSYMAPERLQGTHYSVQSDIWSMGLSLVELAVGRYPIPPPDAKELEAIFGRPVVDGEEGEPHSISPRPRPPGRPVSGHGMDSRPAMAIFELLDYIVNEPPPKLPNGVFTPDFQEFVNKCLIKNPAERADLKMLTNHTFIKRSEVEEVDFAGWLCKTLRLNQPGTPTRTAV
Chain of MST1/STK4 (Q13043 whole entry): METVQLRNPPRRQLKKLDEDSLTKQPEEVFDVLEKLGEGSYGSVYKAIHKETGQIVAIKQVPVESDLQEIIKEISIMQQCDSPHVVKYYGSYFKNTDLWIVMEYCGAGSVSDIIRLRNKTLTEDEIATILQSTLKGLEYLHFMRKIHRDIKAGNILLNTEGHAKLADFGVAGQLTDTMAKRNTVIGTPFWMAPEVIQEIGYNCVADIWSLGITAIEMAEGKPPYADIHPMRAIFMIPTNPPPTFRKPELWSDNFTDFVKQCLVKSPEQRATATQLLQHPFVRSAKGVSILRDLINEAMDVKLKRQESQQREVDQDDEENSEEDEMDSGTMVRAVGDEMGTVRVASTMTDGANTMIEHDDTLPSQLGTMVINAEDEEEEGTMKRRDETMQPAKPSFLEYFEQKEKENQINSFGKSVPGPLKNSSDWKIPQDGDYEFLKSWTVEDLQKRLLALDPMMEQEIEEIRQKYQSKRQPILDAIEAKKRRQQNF
Chain of PKCEPSILON (Q02156 whole entry): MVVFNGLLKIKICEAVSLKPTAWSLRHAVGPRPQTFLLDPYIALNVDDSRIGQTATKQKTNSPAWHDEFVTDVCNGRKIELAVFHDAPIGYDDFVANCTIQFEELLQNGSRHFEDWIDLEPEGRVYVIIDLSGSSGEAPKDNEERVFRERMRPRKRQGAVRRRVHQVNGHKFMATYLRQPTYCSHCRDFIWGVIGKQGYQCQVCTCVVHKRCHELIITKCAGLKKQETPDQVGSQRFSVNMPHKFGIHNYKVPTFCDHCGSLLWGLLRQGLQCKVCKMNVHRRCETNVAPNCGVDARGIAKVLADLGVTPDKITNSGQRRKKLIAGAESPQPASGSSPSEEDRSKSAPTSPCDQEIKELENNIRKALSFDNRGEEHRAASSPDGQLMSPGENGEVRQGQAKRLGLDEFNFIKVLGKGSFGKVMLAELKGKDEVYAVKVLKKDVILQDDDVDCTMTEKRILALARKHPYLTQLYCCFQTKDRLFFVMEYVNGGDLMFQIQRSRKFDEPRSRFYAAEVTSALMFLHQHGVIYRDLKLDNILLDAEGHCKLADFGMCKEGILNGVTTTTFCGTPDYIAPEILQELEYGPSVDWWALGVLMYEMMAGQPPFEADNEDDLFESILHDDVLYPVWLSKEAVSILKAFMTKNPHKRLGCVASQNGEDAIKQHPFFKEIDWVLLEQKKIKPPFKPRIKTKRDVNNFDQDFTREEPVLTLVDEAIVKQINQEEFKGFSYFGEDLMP
Chain of MKK7 (O14733 whole entry, species assumed): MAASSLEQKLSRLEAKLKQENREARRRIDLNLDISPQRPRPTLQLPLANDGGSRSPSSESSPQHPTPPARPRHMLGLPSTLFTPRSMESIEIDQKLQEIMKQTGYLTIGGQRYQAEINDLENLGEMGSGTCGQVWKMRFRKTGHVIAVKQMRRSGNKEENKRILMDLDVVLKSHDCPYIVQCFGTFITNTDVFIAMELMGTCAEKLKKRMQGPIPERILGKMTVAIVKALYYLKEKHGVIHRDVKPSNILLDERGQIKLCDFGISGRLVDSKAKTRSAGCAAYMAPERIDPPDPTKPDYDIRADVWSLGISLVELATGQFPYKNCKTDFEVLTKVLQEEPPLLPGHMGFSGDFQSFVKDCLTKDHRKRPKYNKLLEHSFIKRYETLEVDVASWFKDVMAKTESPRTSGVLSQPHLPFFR
Chain of EPHA2 (P29317 24-976, species assumed): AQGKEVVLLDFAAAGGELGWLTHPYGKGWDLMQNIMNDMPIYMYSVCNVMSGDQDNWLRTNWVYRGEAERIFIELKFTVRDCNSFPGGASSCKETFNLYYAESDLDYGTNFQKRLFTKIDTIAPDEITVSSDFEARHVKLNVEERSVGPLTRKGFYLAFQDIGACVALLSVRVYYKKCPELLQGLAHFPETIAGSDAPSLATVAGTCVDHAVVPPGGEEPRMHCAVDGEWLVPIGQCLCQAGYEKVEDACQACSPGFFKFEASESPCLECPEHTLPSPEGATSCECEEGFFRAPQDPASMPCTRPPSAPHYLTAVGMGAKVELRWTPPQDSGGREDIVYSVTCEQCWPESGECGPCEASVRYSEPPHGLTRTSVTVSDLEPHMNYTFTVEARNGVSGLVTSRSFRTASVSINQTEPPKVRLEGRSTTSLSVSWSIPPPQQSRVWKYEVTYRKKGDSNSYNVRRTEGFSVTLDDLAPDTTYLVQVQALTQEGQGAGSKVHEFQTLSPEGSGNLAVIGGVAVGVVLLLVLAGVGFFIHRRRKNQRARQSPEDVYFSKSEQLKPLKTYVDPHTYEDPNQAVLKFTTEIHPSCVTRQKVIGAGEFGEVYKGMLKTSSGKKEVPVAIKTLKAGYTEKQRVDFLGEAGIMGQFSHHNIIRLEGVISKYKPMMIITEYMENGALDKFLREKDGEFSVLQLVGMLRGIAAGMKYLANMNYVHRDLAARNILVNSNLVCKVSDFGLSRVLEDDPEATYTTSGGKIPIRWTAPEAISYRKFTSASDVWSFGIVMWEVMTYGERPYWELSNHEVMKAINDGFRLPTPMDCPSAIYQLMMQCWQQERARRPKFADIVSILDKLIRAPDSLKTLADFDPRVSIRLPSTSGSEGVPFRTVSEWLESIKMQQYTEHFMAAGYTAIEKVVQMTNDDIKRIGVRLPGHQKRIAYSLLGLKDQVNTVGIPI
Chain of ERK1 (P27361 whole entry, species assumed): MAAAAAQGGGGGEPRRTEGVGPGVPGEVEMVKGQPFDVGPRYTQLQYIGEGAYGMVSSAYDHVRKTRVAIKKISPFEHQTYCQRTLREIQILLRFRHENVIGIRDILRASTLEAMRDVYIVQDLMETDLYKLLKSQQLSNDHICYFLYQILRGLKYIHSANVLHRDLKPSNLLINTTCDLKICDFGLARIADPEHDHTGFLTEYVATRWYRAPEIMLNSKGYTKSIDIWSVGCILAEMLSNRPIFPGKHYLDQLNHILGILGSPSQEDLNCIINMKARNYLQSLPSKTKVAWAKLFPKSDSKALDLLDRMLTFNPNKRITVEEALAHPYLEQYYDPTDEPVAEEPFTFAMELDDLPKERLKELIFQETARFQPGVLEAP

Structure (SMILES)	remaining activity at 1 µM (AKT3) [%]	remaining activity at 1 µM (BMPR2) [%]	remaining activity at 1 µM (BRAF) [%]	remaining activity at 1 µM (CDK7/CYCLIN H) [%]	remaining activity at 1 µM (CLK2) [%]	remaining activity at 1 µM (COT1/MAP3K8) [%]	remaining activity at 1 µM (DAPK2) [%]	remaining activity at 1 µM (DCAMKL1) [%]	remaining activity at 1 µM (DRAK1/STK17A) [%]	remaining activity at 1 µM (EPHA2) [%]	remaining activity at 1 µM (ERK1) [%]	remaining activity at 1 µM (GRK3) [%]	remaining activity at 1 µM (MEK2) [%]	remaining activity at 1 µM (MKK7) [%]	remaining activity at 1 µM (MST1/STK4) [%]	remaining activity at 1 µM (MST3/STK24) [%]	remaining activity at 1 µM (OSR1/OXSR1) [%]	remaining activity at 1 µM (PKA) [%]	remaining activity at 1 µM (PKACG) [%]	remaining activity at 1 µM (PKCEPSILON) [%]	further results
Cc1ccc(Nc2ncc3c(n2)C2(CC2)C(=O)N(c2cc(NC(=O)c4cccc(C(F)(F)F)c4)ccc2C)C3)cn1 [Compound 51, N-(4-methyl-3-(2'-((6-methylpyridin-3-yl)amino)-7'-oxo-5'H-spiro[cyclopropane-1,8'-pyrido[4,3-d]pyrimidine]-6'(7'H)-yl)phenyl)-3-(trifluoromethyl)benzamide]	> 40	> 40	≤ 40	> 40	> 40	> 40	> 40	> 40	> 40	≤ 40	> 40	> 40	> 40	> 40	> 40	> 40	> 40	> 40	≤ 40	> 40	remaining activity at 1 µM (CAMK2B; CAMK2b): > 40%; remaining activity at 1 µM (CAMKIG; CAMK1g): > 40%; remaining activity at 1 µM (CK1G2; CKlg2, 1 µM): > 40%; remaining activity at 1 µM (P38D/MAPK13; P38d/MAPK13, 1 µM): > 40%; remaining activity at 1 µM (PKCG): > 40%; remaining activity at 1 µM (PKCMU/PRKD1): > 40%; remaining activity at 1 µM (PLK2): > 40%; remaining activity at 1 µM (RET): ≤ 40%; remaining activity at 1 µM (RON/MSTIR): > 40%; remaining activity at 1 µM (SIK1): ≤ 40%; remaining activity at 1 µM (STK32C/YANK3): > 40%; remaining activity at 1 µM (TAK1): ≤ 40%; remaining activity at 1 µM (TAOK3/JIK): ≤ 40%; remaining activity at 1 µM (WNK2): > 40%
Cc1cn(-c2cc(C(=O)Nc3ccc(C)c(N4Cc5cnc(NC6CC6)nc5C5(CC5)C4=O)c3)cc(C(F)(F)F)c2)cn1 [Compound 8, N-(3-(2'-(cyclopropylamino)-7'-oxo-5'H-spiro[cyclopropane-1,8'-pyrido[4,3-d]pyrimidine]-6'(7'H)-yl)-4-methylphenyl)-3-(4-methyl-1H-imidazol-1-yl)-5-(trifluoromethyl)benzamide]	> 40	> 40	≤ 40	> 40	> 40	> 40	> 40	> 40	> 40	≤ 40	> 40	> 40	> 40	> 40	> 40	> 40	> 40	> 40	≤ 40	> 40	remaining activity at 1 µM (CAMK2B; CAMK2B): > 40%; remaining activity at 1 µM (CAMKIG; CAMKIG): > 40%; remaining activity at 1 µM (CK1G2; CK1G2, 1 µM): > 40%; remaining activity at 1 µM (P38D/MAPK13; P38D/MAPK13, 1 µM): > 40%; remaining activity at 1 µM (PKCG): > 40%; remaining activity at 1 µM (PKCMU/PRKD1): > 40%; remaining activity at 1 µM (PLK2): > 40%; remaining activity at 1 µM (RET): ≤ 40%; remaining activity at 1 µM (RON/MSTIR): > 40%; remaining activity at 1 µM (SIK1): ≤ 40%; remaining activity at 1 µM (STK32C/YANK3): > 40%; remaining activity at 1 µM (TAK1): ≤ 40%; remaining activity at 1 µM (TAOK3/JIK): ≤ 40%; remaining activity at 1 µM (WNK2): > 40%
